Test [1] deals with Colletotrichum gloeosporioides. The test is described as follows: Antifungal activity against Colletotrichum gloeosporioides. It counts as functional.
The subject of test [2] is Aspergillus fumigatus. The test is described as follows: Antimicrobial activity against Aspergillus fumigatus. It counts as functional.
In test [3] the test system is Trichophyton rubrum. The experiment in a line: Antifungal activity against Trichophyton rubrum assessed as inhibition of fungal growth by atomatic microplate reader analysis. It counts as functional.
Test [4] concerns Pichia kudriavzevii. The experiment in a line: Antifungal activity against clinical strain Candida krusei assessed as inhibition of fungal growth by atomatic microplate reader analysis. The test is classed as functional.
Test [5] deals with Cryptococcus neoformans. The test is described as follows: Antifungal activity against Cryptococcus neoformans ATCC32609 assessed as inhibition of fungal growth by atomatic microplate reader analysis. The test is classed as functional.
Test [6] relates to Aspergillus fumigatus. The test is described as follows: Antifungal activity against clinical strain Aspergillus fumigatus assessed as inhibition of fungal growth by atomatic microplate reader analysis. It counts as functional.
For test [7], the system named is Candida albicans. The test is described as follows: Antifungal activity against Candida albicans ATCC76615 assessed as inhibition of fungal growth by atomatic microplate reader analysis. The test is classed as functional.
The test system of test [8] is Candida tropicalis. The test is described as follows: Antifungal activity against clinical strain Candida tropicalis assessed as inhibition of fungal growth by atomatic microplate reader analysis. It counts as functional.
Test [9] concerns Cryptococcus neoformans. The test is described as follows: Antifungal activity against Cryptococcus neoformans. The test is classed as functional, organism-based.
Test [10] has as its system Saccharomyces cerevisiae. The test is described as follows: Antifungal activity against Saccharomyces cerevisiae assessed as inhibition of fungal growth. The test is classed as functional, organism-based.
The subject of test [11] is Candida albicans. The test is described as follows: Antifungal activity against amphotericin-B-resistant Candida albicans. It counts as functional, organism-based.
Test [12] has as its system Candida albicans. The experiment in a line: Antifungal activity against wild type Candida albicans. The test is classed as functional, organism-based.
In test [13] the test system is Gaeumannomyces graminis. The experiment in a line: Antimicrobial activity against Gaeumannomyces graminis. The test is classed as functional.
In test [14] the test system is Nannizzia gypsea. The test is described as follows: Antifungal activity against Microsporum gypseum ATCC31388. The test is classed as functional.
The subject of test [15] is Candida tropicalis. The test is described as follows: Antifungal activity against Candida tropicalis assessed as fungal growth inhibition. The test is classed as functional.
Test [16] relates to Nannizzia gypsea. The experiment in a line: Antifungal activity against Microsporum gypseum measured after 96 hrs by two fold serial dilution technique. The test is classed as functional.
Test [17] has as its system Epidermophyton floccosum. The test is described as follows: Antifungal activity against Epidermophyton floccosum measured after 96 hrs by two fold serial dilution technique. The test is classed as functional.
For test [18], the system named is Aspergillus niger. The test is described as follows: Antifungal activity against Aspergillus niger measured after 96 hrs by two fold serial dilution technique. It counts as functional.
Test [19] concerns Candida albicans. The test is described as follows: Antifungal activity against Candida albicans measured after 96 hrs by two fold serial dilution technique. The test is classed as functional.
The test system of test [20] is Trichophyton mentagrophytes. The experiment in a line: Antifungal activity against Trichophyton mentagrophytes measured after 96 hrs by two fold serial dilution technique. The test is classed as functional.
For test [21], the system named is Aspergillus fumigatus. The experiment in a line: Antifungal activity against Aspergillus fumigatus measured after 96 hrs by two fold serial dilution technique. The test is classed as functional.
Test [22] relates to Fusarium oxysporum. The test is described as follows: Antifungal activity against Fusarium oxysporum measured after 96 hrs by two fold serial dilution technique. The test is classed as functional.
Test [23] has as its system Lindra thalassiae. The test is described as follows: Antifungal activity against Lindra thalassiae assessed as lethal dose. The note with it: Lindriella thalassiae; read-out: LD50 (the source's name). The test is classed as functional.
Test [24] relates to Candida albicans. The test is described as follows: Antifungal activity against Candida albicans ATCC 24433. The test is classed as functional.

The results in this text go back to ChEMBL document CHEMBL5260795, “Antifungal potential of marine natural products” (Eur J Med Chem, 2017).

Converted amounts (≈) assume the structure as drawn.

Molecule `CC1=CC[C@]23C[C@H]1C[C@@](C)(O)[C@H]2[C@H](O)C[C@@H]3C` showed an MIC in [1] of 1 µg/mL (≈ 4.23 µM).
Regarding `COc1ccc(/C=C/CCCC[C@H](C)[C@H](O)[C@@H](O)[C@H]2NC(=O)C[C@@H](O)CNC(=O)CNC(=O)[C@@H](Cc3c(C(=O)O)[nH]c4ccccc34)NC(=O)CN(C)C(=O)C[C@H]3NC(=O)[C@H](O)[C@H]3NC(=O)[C@H]2O)cc1`, in test [2], the MIC worked out at 1.3 µg/mL (≈ 1.33 µM).
`CO[C@@H]1[C@@H](O)[C@H](O[C@@H]2[C@@H](O)[C@H](O[C@@H]3[C@@H](O)[C@H](O)[C@@H](O[C@H]4[C@H](O[C@H]5CC[C@@H]6C7=C[C@H](O)[C@]89C(=O)O[C@@](C)(CCC=C(C)C)[C@H]8CC[C@@]9(C)[C@@H]7CC[C@H]6C5(C)C)OC[C@@H](O[C@@H]5O[C@H](CO)[C@@H](O)[C@H](O[C@@H]6O[C@H](CO)[C@@H](O)[C@H](OC)[C@H]6O)[C@H]5O)[C@@H]4O)O[C@H]3C)O[C@H](CO)[C@H]2O)O[C@H](CO)[C@H]1O`: the minimal inhibitory concentration (MIC) in test [3], in test [4], in test [5], in test [6], in test [7] and in [8] was 0.7 µM (≈ 0.988 µg/mL) in each case.
Consider `CCC(C)CC(C)/C=C(C)/C=C/CC(C)C(O)C(C)/C=C(C)/C=C/C(O)C(C)c1cc(O)c(C2OC(CO)CC(O)C2O)c(=O)o1` (configuration not stated), for which the IC50 in [9] and in [10] was 1.56 µg/mL (≈ 2.41 µM) in each case.
Consider `CC(/C=C/c1ccccc1)=C\[C@H](O)[C@@H]1CC(=O)N[C@@H](CO)C(=O)NC2Cn3cc([n+]([C@@H]4O[C@H](CO)[C@H](O)[C@H](O)[C@H]4O)c3)CC(NC(=O)CCC[C@@H](C(=O)[O-])NC(=O)[C@@H](O)CNC(=O)[C@H](Cc3ccc(Br)cc3)NC(=O)[C@H]([C@@H](O)C(N)=O)NC(=O)[C@H](CC(N)=O)NC2=O)C(=O)N[C@@H]([C@H](C)O)C(=O)N[C@@H](CO)C(=O)N[C@@H](Cc2ccccc2)C(=O)N1` (some centres not stated), for which the values for the half-inhibitory concentration (IC50) in test [11] and in [12] were 3.49 µg/mL (≈ 2.01 µM) and 7.84 µg/mL (≈ 4.52 µM), respectively.
For the molecule `CS[C@@]12CC3=CC=C[C@H](O)[C@H]3N1C(=O)[C@@H]1C[C@@H]3C(=O)CC[C@@H](O)[C@@H]3N1C2=O`, in test [13], the MIC is 0.25 µg/mL (≈ 0.64 µM).
Consider `CC(=O)O[C@@H]1C[C@H](C)[C@@]23CC=C(C)[C@@H](C2)C[C@@](C)(O)[C@@H]13`, for which 0.125 µg/mL (≈ 0.449 µM) was the least that counted as inhibitory in test [1] (MIC).
For `CO[C@@H]1[C@@H](O)[C@H](O[C@@H]2[C@@H](O)[C@H](O[C@@H]3CO[C@@H](O[C@H]4CC[C@]5(C)[C@@H]6CC[C@]78C(=O)O[C@@](C)(C[C@H](CC(C)C)OC(C)=O)[C@H]7C(=O)C[C@@]8(C)C6=CC[C@H]5C4(C)C)[C@H](O[C@@H]4O[C@H](C)[C@@H](O[C@@H]5OC[C@@H](O)[C@H](O[C@@H]6O[C@H](CO)[C@@H](O)[C@H](OC)[C@H]6O)[C@H]5O)[C@H](O)[C@H]4O)[C@H]3O)O[C@H](CO)[C@H]2O)O[C@H](CO)[C@H]1O`, the minimum inhibitory concentration (MIC) in test [14] and in test [15] was 1.4 µM (≈ 2.04 µg/mL) each time.
Consider `CC(=O)OCc1cc(=O)occ1O`, for which the MIC in test [16], in test [17], in test [18], in test [19], in test [20] and in test [21] was 1 µg/mL (≈ 5.43 µM) each time. Inhibition of growth in test [22] (MIC) required 1 µg/mL (≈ 5.43 µM).
Consider `CC(=O)OC[C@@]1(COS(=O)(=O)[O-])C(=O)CC[C@]23C[C@]24CC[C@]2(C)[C@@H]([C@H](C)CC(=O)CC(C)C)CC[C@@]2(C)[C@H]4CC[C@@H]13.[Na+]`, for which, in test [23], the LC50 turned out to be 0.03 µg/mL.
`CO[C@H](c1ccc(O)cc1)[C@@H](NC(=O)[C@H](CCC(N)=O)NC(=O)[C@H](CC(C)C)NC(=O)[C@@H](CCCNC(=N)N)NC(=O)[C@H](NC(=O)[C@H](NC(=O)[C@@H](NC(=O)[C@H](O)[C@H](O)[C@H](CCCNC(=N)N)NC(=O)[C@@H](C)NC(=O)[C@H](C)[C@H](O)[C@H](C)CC(C)C)[C@@H](C)CC(N)=O)[C@@H](C)O)[C@@H](C)O)C(=O)N(C)[C@@H](C)C(=O)O` came in with a minimum inhibitory concentration (MIC) in test [24] of 0.15 µg/mL (≈ 0.1 µM).
For `CO[C@@H]1[C@@H](O)[C@H](O[C@@H]2[C@@H](O)[C@H](O[C@@H]3[C@@H](O)[C@H](O)[C@@H](O[C@H]4[C@H](O[C@H]5CC[C@@H]6C7=C[C@H](O)[C@]89C(=O)O[C@@](C)(CCCC(C)C)[C@H]8CC[C@@]9(C)[C@@H]7CC[C@H]6C5(C)C)OC[C@@H](O[C@@H]5O[C@H](CO)[C@@H](O)[C@H](O[C@@H]6O[C@H](CO)[C@@H](O)[C@H](OC)[C@H]6O)[C@H]5O)[C@@H]4O)O[C@H]3C)O[C@H](CO)[C@H]2O)O[C@H](CO)[C@H]1O`, the minimal inhibitory concentration (MIC) in test [3], in test [4], in [5], in test [6], in test [7] and in test [8] was 0.7 µM (≈ 0.989 µg/mL) in each case.
Turning to `CS[C@@]12C[C@@H]3C(=O)CC[C@H](O)[C@@H]3N1C(=O)[C@]1(SC)C[C@H]3C(=O)CC[C@@H](O)[C@@H]3N1C2=O`, in test [13], 0.25 µg/mL (≈ 0.55 µM) was the least that counted as inhibitory (MIC).
